Here are results for 29 compounds from US20120010206A1, “IMIDAZOLOPYRIDINE COMPOUNDS USEFUL FOR THE TREATMENT OF DEGENERATIVE AND INFLAMMATORY DISEASES” (priority 2006, published 2012).

What is called pIC50 is the negative decadic logarithm of the IC50, by convention in mol/L.

pIC50: −log10 of the molar value. Where only a bound is given, the exact number is not on record here.

The target in the assay is T1, TAK1-TAB1 fusion protein (Homo sapiens, UniProt O43318).
T1 construct: purchased Upstate 14-600
T1 sequence (O43318 with tags, fused parts or gaps limits assumed): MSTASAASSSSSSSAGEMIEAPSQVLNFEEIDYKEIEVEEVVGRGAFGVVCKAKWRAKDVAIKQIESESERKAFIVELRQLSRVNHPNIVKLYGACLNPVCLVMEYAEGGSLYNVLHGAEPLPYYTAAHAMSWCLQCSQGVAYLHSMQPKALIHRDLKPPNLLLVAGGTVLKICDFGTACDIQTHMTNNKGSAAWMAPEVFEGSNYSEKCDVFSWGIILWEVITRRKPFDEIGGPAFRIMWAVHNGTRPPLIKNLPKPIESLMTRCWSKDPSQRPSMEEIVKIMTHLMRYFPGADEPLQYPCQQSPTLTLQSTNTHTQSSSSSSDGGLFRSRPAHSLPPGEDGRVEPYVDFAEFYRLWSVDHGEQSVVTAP
Put plainly: In vitro TAK1 kinase assay (33P-ATP, casein substrate). It counts as biochemical. Particulars: semi-quantitative score, at least two independent experiments. The procedure:
For assessing TAK1 inhibition, active TAK1-TAB1 fusion protein was used from Upstate (Cat. No, 14-600). Kinase reactions are set up in 96-well polypropylene plates in 25 μL containing 0.5 mU TAK1-TAB1 fusion protein, […], 0.01 μCi/μL [^33P]-γ-ATP, 0.1 mg/mL casein substrate in 1× reaction buffer containing 10 mM MOPS pH 7.0, 1 mM EDTA.
Starting from the compound master stocks (all at 10 mM concentration in 100% DMSO) a 3-fold serial dilution is made in 96-well plates in 100% DMSO. Plates are further diluted […] in H2O containing 3.5% DMSO, to obtain an intermediate work stock with compounds at 5× the final assay concentration in 5% DMSO.
5 μL of the intermediate stock is transferred into V-bottom 96 well polypropylene plates and 11 μL of Enzyme mix is added. Enzyme mix is made by combining 5 μL 5× reaction buffer ([…] pH 7.0, 1 mM EDTA), 5 μL casein (Sigma) diluted in H2O to 0.5 mg/mL and 1 μL of TAK1-TAB1 fusion protein that was prediluted to 0.5 mU/μL in 1× enzyme dilution buffer (20 mM MOPS pH 7.0, 0.1 mM EDTA, 0.01% Brij-35, 5% glycerol, 1 mM DTT, 1 mg/ml BSA).
The reactions are started by the addition of 9 μL of mixture containing ATP (20.83 uM) and [^33P]-γ-ATP (0.028 μCi/μL).
The assay is stopped 90 minutes after incubation at 30° C. by the addition of 25 μL phosphoric acid (150 mM). The label incorporated into the casein substrate is separated from labeled unincorporated ATP by filtration onto 96-well filter plates using a harvester device. After 6 washes with 75 mM phosphoric acid, the bottom of the filter plates are sealed, and incorporated label is quantified after addition of 40 μL scintillation fluid using TopCount.
Based on these percent inhibition data obtained in at least two independent experiments for the compounds, compounds are ranked using semi-quantitative scores. Table A below lists a number of compounds which have been or can be prepared according to the synthetic methods described herein. Semi-quantitative score: • *>3001 nM • ** 1001-3000 nM • *** 101-1000 nM • ****<100 nM
Compound `O=c1cc(-c2ccc(Nc3ccc(N4CCN5CCCCC5C4)cc3)c3nccn23)cc[nH]1` (centres unmarked) [Compound 114, 4-{8′-[4-(Octahydro-pyrido[1,2-a]pyrazin-2-yl)-phenylamino]-imidazo[1,2-a]pyridin-5-yl}-1H-pyridin-2-one] had a pIC50 of 6.00 to 7.00.

Turning to `O=c1cc(-c2ccc(Nc3ccc(N4CCC(F)CC4)cc3)c3nccn23)cc[nH]1` [Compound 116, 4-{8-[4-(4-Fluoro-piperidin-1-yl)-phenylamino]-imidazo[1,2-a]pyridin-5-yl}-1H-pyridin-2-one], the pIC50 is 5.52 to 6.00.

`CC1CCCN(C2CCN(c3ccc(Nc4ccc(-c5cc[nH]c(=O)c5)n5ccnc45)cc3)CC2)C1` (centres unmarked) [Compound 122, 4-{8-[4-(3-Methyl-[1,4′]bipiperidinyl-1′-yl)-phenylamino]-imidazo[1,2-a]pyridin-5-yl}-1H-pyridin-2-one] had a negative logarithm of the IC50 (pIC50) of 6.00 to 7.00.

Turning to `CC(C)N1CCN(c2ccc(Nc3ccc(-c4ccc(O)c(F)c4)n4ccnc34)cc2)CC1` [Compound 93], the negative-log IC50 (pIC50) is 5.52 to 6.00.

In the case of `O=c1cc(-c2ccc(Nc3ccc(N4CCCC4)c(Cl)c3)c3nccn23)cc[nH]1` [Compound 125, 4-[8-(3-Chloro-4-pyrrolidin-1-yl-phenylamino)-imidazo[1,2-a]pyridin-5-yl]-1H-pyridin-2-one], the negative logarithm of the IC50 (pIC50) is under 5.52.

For the compound `O=C1NCc2cc(-c3ccc(Nc4ccc(-n5cccn5)cc4)c4nccn34)ccc21` [Compound 30, 5-(8-(4-(1H-pyrazol-1-yl)phenylamino)imidazo[1,2-a]pyridin-5-yl)isoindolin-1-one], the negative-log IC50 (pIC50) was 5.52 to 6.00.

`O=C(NCc1cccc(-n2cccc2)c1)c1ccc(Nc2ccc(-c3ccc4c(c3)CNC4=O)n3ccnc23)cc1` [Compound 35, 4-[5-(1-Oxo-2,3-dihydro-1H-isoindol-5-yl)-imidazo[1,2-a]pyridin-8-ylamino]-N-(3-pyrrol-1-yl-benzyl)-benzamide] gave a negative logarithm of the IC50 (pIC50) of 6.00 to 7.00.

As for `C[C@@H]1CN(c2ccc(Nc3ccc(-c4cc[nH]c(=O)c4)n4ccnc34)cc2F)C[C@H](C)N1C` [Compound 101], the negative-log IC50 (pIC50) was 6.00 to 7.00.

On to `C[C@@H]1CN(c2ccc(Nc3ccc(-c4cc[nH]c(=O)c4)n4ccnc34)cc2)C[C@H](C)O1` [Compound 113, 4-{8-[4-((2R,6S)-2,6-Dimethyl-morpholin-4-yl)-phenylamino)-imidazo[1,2-a]pyridin-5-yl}-1H-pyridin-2-one], for which the negative logarithm of the IC50 (pIC50) was 5.52 to 6.00.

With `O=c1cc(-c2ccc(Nc3ccc(N4CCCC(F)(F)C4)cc3)c3nccn23)cc[nH]1` [Compound 118, 4-{8-[4-(3,3-Difluoro-piperidin-1-yl)-phenylamino]-imidazo[1,2a]pyridin-5-yl}-1H-pyridin-2-one], the negative-log IC50 (pIC50) is under 5.52.

In turn, `C[C@@H]1CN(c2ccc(Nc3ccc(-c4cc[nH]c(=O)c4)n4ccnc34)cc2)C[C@H](C)N1C` [Compound 98] had a negative-log IC50 (pIC50) of 6.00 to 7.00.

Compound `CC1CCN(C2CCN(c3ccc(Nc4ccc(-c5cc[nH]c(=O)c5)n5ccnc45)cc3)CC2)CC1` [Compound 121, 4-{8-[4-(4-Methyl-[1,4′]bipiperidinyl-1′-yl)-phenylamino]-imidazo[1,2-a]pyridin-5-yl}-1H-pyridin-2-one] had a pIC50 of 6.00 to 7.00.

Consider `CC1CCCN(C2CCN(C(=O)c3ccc(Nc4ccc(-c5ccc6c(c5)CNC6=O)n5ccnc45)cc3)CC2)C1` (centres unmarked) [Compound 54, 5-{8-[4-(3-Methyl-[1,4′]bipiperidinyl-1′-carbonyl)-phenylamino]-imidazo [1,2-a]pyridin-5-yl}-2,3-dihydro-isoindol-1-one], for which the pIC50 is 6.00 to 7.00.

The compound `C[C@@H]1CN(C)[C@@H](C)CN1c1ccc(Nc2ccc(-c3cc[nH]c(=O)c3)n3ccnc23)cc1` [Compound 99] had a negative-log IC50 (pIC50) of 6.00 to 7.00.

The compound `O=c1cc(-c2ccc(Nc3ccc(N4CCN(CC(F)F)CC4)cc3)c3nccn23)cc[nH]1` [Compound 110, 4-(8-{4-[4-(2,2-Difluoro-ethyl)-piperazin-1-yl]-phenylamino}-imidazo[1,2-a]pyridin-5-yl)-1H-pyridin-2-one] gave a negative logarithm of the IC50 (pIC50) of under 5.52.

`CCN1CCN(c2ccc(Nc3ccc(-c4cc[nH]c(=O)c4)n4ccnc34)cc2Cl)CC1` [Compound 104] had a pIC50 of 6.00 to 7.00.

`O=C1NCc2cc(-c3ccc(Nc4ccc(-n5cncn5)cc4)c4nccn34)ccc21` [Compound 31, 5-(8-(4-(1H-1,2,4-triazol-1-yl)phenylamino)imidazo[1,2-a]pyridin-5-yl)isoindolin-1-one] showed a pIC50 of 6.00 to 7.00.

`CC1CCN(C2CCN(C(=O)c3ccc(Nc4ccc(-c5ccc6c(c5)CNC6=O)n5ccnc45)cc3)CC2)CC1` [Compound 55, 5-{8-[4-(4-Methyl-[1,4′]bipiperidinyl-1′-carbonyl)-phenylamino]-imidazo [1,2-a]pyridin-5-yl}-2,3-dihydro-isoindol-1-one] gave a pIC50 of 6.00 to 7.00.

Consider `O=c1cc(-c2ccc(Nc3ccc(N4CCC(N5CCC(O)CC5)CC4)cc3)c3nccn23)cc[nH]1` [Compound 123, 4-{8-[4-(4-Hydroxy-[1,4′]bipiperidinyl-1′-yl)-phenylamino]-imidazo[1,2-a]pyridin-5-yl}-1H-pyridin-2-one], for which the negative logarithm of the IC50 (pIC50) was 5.52 to 6.00.

Compound `O=c1cc(-c2ccc(Nc3ccc(N4CCCCC4)cc3)c3nccn23)cc[nH]1` [Compound 115, 4-[8-(4-Piperidin-1-yl-phenylamino)-imidazo[1,2-a]pyridin-5-yl]-1H-pyridin-2-one] gave a pIC50 of 5.52 to 6.00.

Consider `O=c1cc(-c2ccc(Nc3ccc(N4CCS(=O)(=O)CC4)cc3)c3nccn23)cc[nH]1` [Compound 112, 4-{8-[4-(1,1-Dioxo-1lambda*6*- thiomorpholin-4-yl)-phenylamino]-imidazo[1,2-a]pyridin-5-yl}-1H-pyridin-2-one], for which the negative logarithm of the IC50 (pIC50) was under 5.52.

Take `O=C(NCCN1CCCCC1)c1ccc(Nc2ccc(-c3ccc4c(c3)CNC4=O)n3ccnc23)cc1` [Compound 56, 4-(5-(1-oxoisoindolin-5-yl)imidazo[1,2-a]pyridin-8-ylamino)-N-(2-(piperidin-1-yl)ethyl)benzamide]: the pIC50 was 6.00 to 7.00.

As for `CC(=O)NCCNC(=O)c1ccc(Nc2ccc(-c3ccc4c(c3)CNC4=O)n3ccnc23)cc1` [Compound 57, N-(2-acetamidoethyl)-4-(5-(1-oxoisoindolin-5-yl)imidazo[1,2-a]pyridin-8-ylamino)benzamide], the pIC50 is 6.00 to 7.00.

Compound `CC(C)N1CCN(c2ccc(Nc3ccc(-c4cc[nH]c(=O)c4)n4ccnc34)cc2F)CC1` [Compound 103] gave a pIC50 of 6.00 to 7.00.

On to `O=c1cc(-c2ccc(Nc3ccc(C4CCNCC4)cc3)c3nccn23)cc[nH]1` [Compound 100], for which the negative-log IC50 (pIC50) is 6.00 to 7.00.

`C[C@@H]1CN(C)[C@@H](C)CN1c1ccc(Nc2ccc(-c3cc[nH]c(=O)c3)n3ccnc23)cc1F` [Compound 97] gave a negative-log IC50 (pIC50) of 6.00 to 7.00.

Compound `O=C(c1ccc(Nc2ccc(-c3cc[nH]c(=O)c3)n3ccnc23)cc1)N1CCC(N2CCCCC2)CC1` [Compound 102] showed a pIC50 of over 7.00.

`CC(C)N1CCN(c2ccc(Nc3ccc(-c4cc[nH]c(=O)c4)n4ccnc34)cc2Cl)CC1` [Compound 105] showed a negative logarithm of the IC50 (pIC50) of 6.00 to 7.00.

Take `c1cn2c(-c3cn[nH]c3)ccc(Nc3ccc(N4CCC(N5CCCCC5)CC4)cc3)c2n1` [Compound 119, (4[1,4′]Bipiperidinyl-1′-yl-phenyl)-[5-(1H-pyrazol-4-yl)-imidazo[1,2-a]pyridin-8-yl]-amine]: the negative-log IC50 (pIC50) is 6.00 to 7.00.
